Active and inactive are the calls of the source. No cut-off for these calls is given here.
Experiments:
Mus musculus [1] = assay: Antipsychotic activity in mouse assessed as reversal of apomorphine-induced mesh climbing response at 2.5 mg/kg, ip administered 10 mins prior to apomorphine challenge measured after 10 mins; assay type: functional, organism-based; set-up: dose 2.5 mg/kg
Mus musculus [2] = assay: Antipsychotic activity in mouse assessed as reversal of apomorphine-induced mesh climbing response at 2.5 mg/kg, ip administered 10 mins prior to apomorphine challenge measured after 30 mins; assay type: functional, organism-based; set-up: dose 2.5 mg/kg
Mus musculus [3] = assay: Antipsychotic activity in mouse assessed as reversal of apomorphine-induced mesh climbing response at 2.5 mg/kg, ip administered 10 mins prior to apomorphine challenge measured after 50 mins; assay type: functional, organism-based; set-up: dose 2.5 mg/kg
Mus musculus [4] = assay: Antipsychotic activity in mouse assessed as reversal of apomorphine-induced mesh climbing response at 2.5 mg/kg, ip administered 10 mins prior to apomorphine challenge measured after 60 mins; assay type: functional, organism-based; set-up: dose 2.5 mg/kg
Mus musculus [5] = assay: Antipsychotic activity in mouse assessed as reversal of apomorphine-induced mesh climbing response at 2.5 mg/kg, ip administered 10 mins prior to apomorphine challenge measured after 20 mins; assay type: functional, organism-based; set-up: dose 2.5 mg/kg
D(2) dopamine receptor = D(2) dopamine receptor (Rattus norvegicus, UniProt P61169); assay: Displacement of [3H]spiperone from dopamine D2 receptor in rat striatum tissue after 20 mins by scintillation counting; assay type: tissue-based
Chain of D(2) dopamine receptor (P61169 whole entry): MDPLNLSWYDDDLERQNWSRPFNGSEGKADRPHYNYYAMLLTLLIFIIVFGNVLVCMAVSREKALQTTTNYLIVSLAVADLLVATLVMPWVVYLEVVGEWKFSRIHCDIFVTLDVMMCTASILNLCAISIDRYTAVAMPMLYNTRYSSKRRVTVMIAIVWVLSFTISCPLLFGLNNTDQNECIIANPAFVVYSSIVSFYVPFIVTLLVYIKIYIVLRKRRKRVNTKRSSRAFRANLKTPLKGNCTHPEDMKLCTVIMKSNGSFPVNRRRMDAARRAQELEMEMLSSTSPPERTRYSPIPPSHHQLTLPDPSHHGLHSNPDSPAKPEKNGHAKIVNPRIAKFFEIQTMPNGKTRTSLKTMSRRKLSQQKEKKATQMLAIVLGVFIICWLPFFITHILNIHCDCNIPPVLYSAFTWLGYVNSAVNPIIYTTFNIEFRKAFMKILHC

[6] = target: 5-hydroxytryptamine receptor 2A (Rattus norvegicus, UniProt P14842); assay: Displacement of [3H]ketanserin from 5HT2A in rat brain cerebral cortex after 20 mins by scintillation counting; assay type: tissue-based
Chain of 5-hydroxytryptamine receptor 2A (P14842 whole entry): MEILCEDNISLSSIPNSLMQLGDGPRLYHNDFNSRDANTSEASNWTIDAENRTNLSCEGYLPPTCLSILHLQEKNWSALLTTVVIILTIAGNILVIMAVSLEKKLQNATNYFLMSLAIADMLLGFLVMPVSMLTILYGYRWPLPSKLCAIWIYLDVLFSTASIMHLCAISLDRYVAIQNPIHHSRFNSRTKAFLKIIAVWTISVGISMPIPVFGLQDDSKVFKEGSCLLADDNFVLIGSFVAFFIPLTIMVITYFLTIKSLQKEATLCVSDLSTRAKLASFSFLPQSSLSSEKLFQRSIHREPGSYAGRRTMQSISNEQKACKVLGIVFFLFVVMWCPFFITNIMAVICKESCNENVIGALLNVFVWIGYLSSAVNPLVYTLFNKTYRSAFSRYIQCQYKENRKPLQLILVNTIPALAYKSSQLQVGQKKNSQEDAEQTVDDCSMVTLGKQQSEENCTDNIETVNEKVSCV

[7] = target: T1, 5-hydroxytryptamine receptor 1A (Rattus norvegicus, UniProt P19327); assay: Displacement of [3H]8OH-DPAT from 5HT1A in rat brain cerebral cortex after 15 mins by scintillation counting; assay type: tissue-based
T1 sequence (P19327 whole entry): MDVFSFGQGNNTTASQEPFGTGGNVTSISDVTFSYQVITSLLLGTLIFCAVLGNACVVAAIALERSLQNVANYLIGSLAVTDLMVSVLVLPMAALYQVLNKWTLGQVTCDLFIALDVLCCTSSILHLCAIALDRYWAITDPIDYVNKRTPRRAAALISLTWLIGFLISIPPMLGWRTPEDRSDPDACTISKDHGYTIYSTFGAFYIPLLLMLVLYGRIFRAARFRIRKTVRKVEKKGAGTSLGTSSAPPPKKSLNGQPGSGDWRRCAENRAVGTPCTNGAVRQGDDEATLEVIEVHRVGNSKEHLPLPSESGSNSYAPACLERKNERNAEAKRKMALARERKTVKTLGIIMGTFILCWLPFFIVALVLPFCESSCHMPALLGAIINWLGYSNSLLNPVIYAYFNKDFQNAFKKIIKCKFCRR

Mus musculus [8] = assay: Antipsychotic activity in mouse assessed as reversal of apomorphine-induced mesh climbing response at 10 mg/kg, ip administered 10 mins prior to apomorphine challenge measured after 40 mins; assay type: functional, organism-based; set-up: dose 10 mg/kg
Mus musculus [9] = assay: Antipsychotic activity in mouse assessed as reversal of apomorphine-induced mesh climbing response at 50 mg/kg, ip administered 20 mins prior to apomorphine challenge measured after 120 mins
Mus musculus [10] = assay: Antipsychotic activity in mouse assessed as reversal of DOI-induced head twitches at 10 mg/kg, ip administered 30 mins before DOI challenge; assay type: functional; settings: route intraperitoneal
Mus musculus [11] = assay: Antipsychotic activity in mouse assessed as reversal of DOI-induced head twitches at 20 mg/kg, ip administered 30 mins before DOI challenge; assay type: functional; settings: route intraperitoneal
Mus musculus [12] = assay: Antipsychotic activity in mouse assessed as reversal of DOI-induced head twitches at 5 mg/kg, ip administered 30 mins before DOI challenge; assay type: functional; settings: route intraperitoneal
Mus musculus [13] = species on record: Mus musculus; settings: Swiss albino, 20 mg/kg
Description: Hypothermic effect in Swiss albino mouse assessed as change in body temperature at 20 mg/kg, ip measured after 120 mins

Rattus norvegicus [14] = assay: Induction of 5HT1A receptor in rat assesses as lower lip retractions at 20 mg/kg, iv after 15 mins (reference value: 0.1 +/- 0.1 retractions); assay type: functional
Mus musculus [15] = assay: Antidepressant-like activity in Swiss albino mouse assessed as immobilization time at 10 mg/kg, ip after 30 mins by forced swim test; assay type: functional
Mus musculus [16] = assay: Antipsychotic activity in mouse assessed as reversal of apomorphine-induced mesh climbing response at 10 mg/kg, ip administered 10 mins prior to apomorphine challenge measured after 50 mins; assay type: functional, organism-based; set-up: dose 10 mg/kg
Mus musculus [17] = assay: Antipsychotic activity in mouse assessed as reversal of apomorphine-induced mesh climbing response at 10 mg/kg, ip administered 10 mins prior to apomorphine challenge measured after 60 mins; assay type: functional, organism-based; set-up: dose 10 mg/kg
Mus musculus [18] = species on record: Mus musculus; settings: Swiss albino, 20 mg/kg; remark: listed apart in the source
Description: Hypothermic effect in Swiss albino mouse assessed as change in body temperature at 20 mg/kg, ip measured after 60 mins in presence of 0.1 mg/kg, sc 5-HT1A antagonist WAY 100635

Mus musculus [19] = species on record: Mus musculus; settings: Swiss albino, 10 mg/kg
Description: Hypothermic effect in Swiss albino mouse assessed as change in body temperature at 10 mg/kg, ip measured after 60 mins

Mus musculus [20] = species on record: Mus musculus; settings: Swiss albino, 10 mg/kg; remark: listed apart in the source
Description: Hypothermic effect in Swiss albino mouse assessed as change in body temperature at 10 mg/kg, ip measured after 120 mins

Mus musculus [21] = species on record: Mus musculus; settings: Swiss albino, 5 mg/kg
Description: Hypothermic effect in Swiss albino mouse assessed as change in body temperature at 5 mg/kg, ip measured after 120 mins

Rattus norvegicus [22] = assay: Induction of 5HT1A receptor in rat assesses as lower lip retractions at 10 mg/kg, iv after 15 mins (reference value: 0.1 +/- 0.1 retractions); assay type: functional
Rattus norvegicus [23] = assay: Antipsychotic activity in 8-OH-DPAT-stimulated rat assessed as lower lip retractions at 10 mg/kg, iv administered 45 mins before 8-OH-DPAT challenge measured after 15 to 45 mins (reference value: 2.9 retractions); assay type: functional
Mus musculus [24] = species on record: Mus musculus; settings: Swiss albino, 5 mg/kg; remark: listed apart in the source
Description: Hypothermic effect in Swiss albino mouse assessed as change in body temperature at 5 mg/kg, ip measured after 90 mins

Mus musculus [25] = species on record: Mus musculus; settings: Swiss albino, 20 mg/kg; remark: listed apart in the source
Description: Hypothermic effect in Swiss albino mouse assessed as change in body temperature at 20 mg/kg, ip measured after 30 mins

Mus musculus [26] = species on record: Mus musculus; settings: Swiss albino, 5 mg/kg; remark: listed apart in the source
Description: Hypothermic effect in Swiss albino mouse assessed as change in body temperature at 5 mg/kg, ip measured after 60 mins

Mus musculus [27] = species on record: Mus musculus; settings: Swiss albino, 10 mg/kg; remark: listed apart in the source
Description: Hypothermic effect in Swiss albino mouse assessed as change in body temperature at 10 mg/kg, ip measured after 30 mins

Rattus norvegicus [28] = assay: Antipsychotic activity in 8-OH-DPAT-stimulated rat assessed as lower lip retractions at 20 mg/kg, iv administered 45 mins before 8-OH-DPAT challenge measured after 15 to 45 mins (reference value: 2.9 retractions); assay type: functional
Mus musculus [29] = species on record: Mus musculus; settings: Swiss albino, 20 mg/kg; remark: listed apart in the source
Description: Hypothermic effect in Swiss albino mouse assessed as change in body temperature at 20 mg/kg, ip measured after 30 mins in presence of 0.1 mg/kg, sc 5-HT1A antagonist WAY 100635

Mus musculus [30] = species on record: Mus musculus; settings: Swiss albino, 20 mg/kg; remark: listed apart in the source
Description: Hypothermic effect in Swiss albino mouse assessed as change in body temperature at 20 mg/kg, ip measured after 90 mins

Mus musculus [31] = species on record: Mus musculus; settings: Swiss albino, 20 mg/kg; remark: listed apart in the source
Description: Hypothermic effect in Swiss albino mouse assessed as change in body temperature at 20 mg/kg, ip measured after 60 mins

Mus musculus [32] = species on record: Mus musculus; settings: Swiss albino, 10 mg/kg; remark: listed apart in the source
Description: Hypothermic effect in Swiss albino mouse assessed as change in body temperature at 10 mg/kg, ip measured after 90 mins

Mus musculus [33] = assay: Antidepressant-like activity in Swiss albino mouse assessed as immobilization time at 20 mg/kg, ip after 30 mins by forced swim test; assay type: functional, organism-based; set-up: dose 20 mg/kg
Mus musculus [34] = species on record: Mus musculus; settings: Swiss albino, 5 mg/kg; remark: listed apart in the source
Description: Hypothermic effect in Swiss albino mouse assessed as change in body temperature at 5 mg/kg, ip measured after 30 mins

Compound: CN1CCc2cccc3c2[C@H]1Cc1ccc(O)c(O)c1-3
- Activity (Mus musculus [1]): inactive
- Activity (Mus musculus [2]): inactive
- Activity (Mus musculus [3]): inactive
- Activity (Mus musculus [4]): inactive
- Activity (Mus musculus [5]): inactive

Compound: COc1ccccc1C(=O)N[C@H]1CC2CC[C@H](C1)N2Cc1ccco1 (single isomer, unassigned)
- Ki (D(2) dopamine receptor): 1 µM
- Ki [6]: 6 µM
- Ki [7]: 6.1 µM

Compound: COc1ccc(C(=O)N[C@H]2CC3CC[C@H](C2)N3Cc2ccco2)c(OC)c1 (single isomer, unassigned)
- Ki (D(2) dopamine receptor): 0.652 µM
- Ki [6]: 1.3 µM
- Ki [7]: 19 µM

Compound: COc1ccc(OC)c(C(=O)N[C@H]2CC3CC[C@H](C2)N3Cc2ccco2)c1 (single isomer, unassigned)
- Ki (D(2) dopamine receptor): 1.1 µM
- Ki [6]: 1.1 µM
- Ki [7]: 9.6 µM

Compound: COc1ccc(C(=O)N[C@H]2CC3CC[C@H](C2)N3Cc2ccco2)cc1OC (single isomer, unassigned)
- Ki (D(2) dopamine receptor): 68.8 µM
- Ki [6]: 7.9 µM
- Ki [7]: 57.3 µM

Compound: COc1cc(OC)cc(C(=O)N[C@H]2CC3CC[C@H](C2)N3Cc2ccco2)c1 (single isomer, unassigned)
- Ki (D(2) dopamine receptor): 13.2 µM
- Ki [6]: 0.929 µM
- Ki [7]: 4.4 µM

Compound: COc1cc(C(=O)N[C@H]2CC3CC[C@H](C2)N3Cc2ccco2)cc(OC)c1OC (single isomer, unassigned)
- Ki (D(2) dopamine receptor): 52.2 µM
- Ki [6]: 1.1 µM
- Ki [7]: 2.9 µM

Compound: COc1ccc(F)cc1C(=O)N[C@H]1CC2CC[C@H](C1)N2Cc1ccco1 (single isomer, unassigned)
- Ki (D(2) dopamine receptor): 0.507 µM
- Ki [6]: 1.4 µM
- Ki [7]: 17.2 µM

Compound: COc1cc(Cl)ccc1C(=O)N[C@H]1CC2CC[C@H](C1)N2Cc1ccco1 (single isomer, unassigned)
- Activity (Mus musculus [8]): inactive
- Activity (Mus musculus [9]): Active
- Activity (Mus musculus [10]): 40%
- Ki (D(2) dopamine receptor): 0.174 µM
- Activity (Mus musculus [11]): 45%
- Ki [6]: 0.682 µM
- Ki [7]: 2.1 µM
- Activity (Mus musculus [12]): 40%

Compound: O=C(N[C@H]1CC2CC[C@H](C1)N2Cc1ccco1)c1ccc(Cl)cc1[N+](=O)[O-] (single isomer, unassigned)
- Ki (D(2) dopamine receptor): 19 µM
- Ki [6]: 32 µM
- Ki [7]: 16 µM

Compound: COc1cc(N)c(Cl)cc1C(=O)N[C@H]1CC2CC[C@H](C1)N2Cc1ccco1 (single isomer, unassigned)
- deltaT (Mus musculus [13]): -0.9 °C
- Activity (Rattus norvegicus [14]): 0.1
- Activity (Mus musculus [15]): inactive
- Activity (Mus musculus [16]): Active
- Activity (Mus musculus [17]): Active
- deltaT (Mus musculus [18]): -0.8 °C
- deltaT (Mus musculus [19]): -0.2 °C
- deltaT (Mus musculus [20]): -0.1 °C
- Activity (Mus musculus [8]): Active
- deltaT (Mus musculus [21]): 0.1 °C
- Activity (Mus musculus [9]): Active
- Activity (Rattus norvegicus [22]): 0.2
- Activity (Mus musculus [10]): 97%
- Activity (Rattus norvegicus [23]): 2.6
- deltaT (Mus musculus [24]): 0.1 °C
- deltaT (Mus musculus [25]): -1.8 °C
- deltaT (Mus musculus [26]): -0.3 °C
- Ki (D(2) dopamine receptor): 0.0182 µM
- deltaT (Mus musculus [27]): -0.3 °C
- Activity (Rattus norvegicus [28]): 2.7
- Activity (Mus musculus [11]): 100%
- deltaT (Mus musculus [29]): -1.3 °C
- deltaT (Mus musculus [30]): -1 °C
- deltaT (Mus musculus [31]): -1 °C
- deltaT (Mus musculus [32]): -0.1 °C
- Activity (Mus musculus [33]): inactive
- Ki [6]: 0.0166 µM
- Ki [7]: 2.5 µM
- deltaT (Mus musculus [34]): 0 °C
- Activity (Mus musculus [12]): 68%

Compound: O=C(N[C@H]1CC2CC[C@H](C1)N2Cc1ccco1)c1cccc2ccccc12 (single isomer, unassigned)
- Ki (D(2) dopamine receptor): 66.7 µM
- Ki [6]: 2.3 µM
- Ki [7]: 7.1 µM

Compound: O=C(N[C@H]1CC2CC[C@H](C1)N2CC1CCCO1)c1ccccc1 (single isomer, unassigned)
- Ki (D(2) dopamine receptor): > 100 µM
- Ki [6]: 3.1 µM
- Ki [7]: 10.2 µM
